How the values were obtained:
Test in all cases: herbicidal activity, soil treatment one day after sowing
Type in all cases: in vivo
[1] = test system: chenopodium album L.; settings: 6 kg/ha
Excerpt: (§1) The infesting species and the agrarian species have been indicated in Table 1 by letters, as follows:
(§2) Method of evaluation of the results (of tests):
(§3) 1 slight differences with respect to the control;
(§4) 3 = considerable activity with damages that definitely impair the further development of most of the small plants; an activity degree already useful for practical purposes;
(§5) 4 = maximum of activity with lack of germination or total containment of the small plants in the emerging stage.
(§6) In the case of an intermediate activity between two classes of the scale, both values are recorded with the one which corresponds to the preeminent activity preceding.
(§7) TABLE 2 reports the activity data of other compounds that fall within the class which is the object of this invention.
(§8) TABLE 3 reports data on the herbicidal activity against infesting herbs, while TABLE 4 reports data concerning the activity on useful species of agricultural cultivations. These tables employ the criterion explained previously. […]

[2] = test system: artemisia vulgaris L.; settings: 6 kg/ha
Excerpt: as §1
B = artemisia vulgaris L.
as §2, §3, §4, §5, §6, §7, §8

[3] = test system: setaria glauca L.
Excerpt: as §1, §2, §3, §4, §5
In the case of an intermediate activity between two classes of the scale, both values are recorded with the one which corresponds to the preeminent activity preceding. […]
as §8

[4] = test system: echinocloa crus-galli R.S.
Excerpt: as §1
D = echinocloa crus-galli R.S.
as §2, §3, §4, §5, §6, §7, §8

[5] = test system: vicia sativa L.; settings: 6 kg/ha
Excerpt: as §1, §2, §3, §4, §5, §6, §7

[6] = test system: amaranthus retroflexus L.; settings: 6 kg/ha
Excerpt: as §1
A = amaranthus retroflexus L.
as §2, §3, §4, §5, §6, §7, §8

SMILES | activity on C, 0-4 scale [1] | activity on B, 0-4 scale [2] | activity on E, 0-4 scale ([3]; 6 kg/ha) | activity on D, 0-4 scale ([4]; 6 kg/ha) | activity on F, 0-4 scale [5] | activity on A, 0-4 scale [6] | activity on E, 0-4 scale ([3]; 2 kg/ha) | activity on E, 0-4 scale ([3]; 3 kg/ha) | activity on E, 0-4 scale ([3]; 4 kg/ha) | activity on D, 0-4 scale ([4]; 2 kg/ha) | activity on D, 0-4 scale ([4]; 3 kg/ha) | activity on D, 0-4 scale ([4]; 4 kg/ha)
O=C(O)c1cccc(Br)c1 [PA577, 3,bromo-benzoic acid, reference compound] | 0 | 0 | 0 | 0 | 0 | 0 | – | – | – | – | – | –
O=C(O)c1cccc(Cl)c1 [PA439, 3,chloro-benzoic acid, reference compound] | 0 | 0 | 0 | 0 | 0 | 0 | – | – | – | – | – | –
CCCC(C)N(C(=O)c1ccc(Cl)c(Cl)c1)C(C)CC (stereo not drawn) [PA634, 3,4-dichloro-N-sec.amyl,N-sec.butyl-benzamide] | 1-2 | 2 | 3-4 | 3 | 0 | 2 | – | – | – | – | – | –
Cc1cccc(C(=O)N(C(C)C)C(C)C)c1 [PA385, 3,methyl-N,N-di-isopropyl-benzamide, reference compound] | 1 | 2 | 0-1 | – | 0-1 | 1-2 | – | – | – | – | – | –
CC(C)N(C(=O)c1ccc(Cl)cc1Cl)C(C)C [PA281, 2,4-dichloro-N,N-di-isopropyl-benzamide, reference compound] | 0-1 | 2 | 0-1 | 0-1 | 0 | 1-2 | – | – | – | – | – | –
O=C(O)c1ccc(Cl)cc1Cl [PA441, 2,4-dichloro-benzoic acid, reference compound] | 0 | 0 | 0 | 0 | 0 | 0 | – | – | – | – | – | –
CCCN(CCC)C(=O)c1cccc(Cl)c1 [PA322, 3,chloro-N,N-di-n.propyl-benzamide, reference compound] | 0-1 | 1-2 | 0-1 | 1 | – | 1 | – | – | – | – | – | –
CCC(C)N(C(=O)c1cc(Cl)c(Cl)c(Cl)c1)C(C)CC (stereo not drawn) [PA621, 3,4,5-trichloro-N,N-di-sec.butyl-benzamide] | 2 | 2 | 4 | 4 | 0 | 2 | – | – | – | – | – | –
CCC(C)N(C(=O)c1cc(Cl)ccc1Br)C(C)CC (stereo not drawn) [PA504, 2-bromo,5-chloro-N,N-di-sec.butyl-benzamide] | 2 | 1-2 | 4 | 3-4 | 0-1 | 2 | 2-3 | 3 | 3-4 | 2-3 | 2-3 | 3
CCC(C)N(CC(C)C)C(=O)c1ccc(Cl)c(Cl)c1 (stereo not drawn) [PA566, 3,4-dichloro-N-isobutyl,N-sec.butyl-benzamide] | 3 | 2-3 | 4 | – | 0-1 | 3 | – | – | – | – | – | –
CCC(C)N(C(=O)c1c(Cl)cc(Cl)cc1Cl)C(C)CC (stereo not drawn) [PA633, 2,4,6-trichloro-N,N-di-sec.butyl-benzamide] | 2-3 | 2-3 | 4 | 4 | 0 | 2 | – | – | – | – | – | –
CCCCN(CC)C(=O)c1ccc(Cl)c(Cl)c1 [PA325, 3,4-dichloro-N-ethyl,N-n.butyl-benzamide, reference compound] | 2 | 2 | 0-1 | 0-1 | 0 | 3 | – | – | – | – | – | –
CC(C)CN(CC(C)C)C(=O)c1cccc(Br)c1 [PA521, 3-bromo-N,N-di-isobutyl-benzamide, reference compound] | 1 | 1 | 1-2 | 1-2 | 0 | 1 | – | – | – | – | – | –
CCCCN(CCCC)C(=O)c1cc(Cl)cc(Cl)c1 [PA294, 3,5-dichloro-N,N-di-n.butyl-benzamide, reference compound] | 1 | 0-1 | 3 | 2 | 0 | 0-1 | – | – | – | – | – | –
CC(C)CN(CC(C)C)C(=O)c1ccc(Cl)c(Cl)c1 [PA259, 3,4-dichloro-N,N-di-iso-butyl-benzamide, reference compound] | 1-2 | 2 | – | – | 0-1 | 1-2 | – | – | – | – | – | –
CCC(C)N(C(=O)c1ccc(Cl)c(I)c1)C(C)CC (stereo not drawn) [PA614, 4-chloro,3-iodo-N,N-di-sec.butyl-benzamide] | 1 | 0-1 | – | 3 | 0 | 1 | – | – | – | – | – | –
O=C(O)c1cc(Cl)cc(Cl)c1 [PA440, 3,5-dichloro-benzoic acid, reference compound] | 0 | 0 | 0 | 0 | 0 | 0 | – | – | – | – | – | –
O=C(O)c1cc(Cl)cc(Cl)c1Cl [PA304, 2,3,5-trichloro-benzoic acid, reference compound] | 0 | 1 | 0 | 0 | 3 | 1 | – | – | – | – | – | –
CCC(C)N(C(=O)c1ccc(F)c(Br)c1)C(C)CC (stereo not drawn) [PA518, 3-bromo,4-fluoro-N,N-di-sec.butyl-benzamide] | 3 | 3 | 4 | 3-4 | 0 | 2 | – | – | – | – | – | –
CCN(CC)C(=O)c1ccc(Cl)cc1Cl [PA283, 2,4-dichloro-N,N-diethyl-benzamide, reference compound] | 1-2 | 2 | 1 | 1 | 1 | 1 | – | – | – | – | – | –
CCCCN(CCCC)C(=O)c1cccc(C)c1 [PA386, 3,methyl-N,N-di-n.butyl-benzamide, reference compound] | 2-3 | 1-2 | 0-1 | 0-1 | 0-1 | 3 | – | – | – | – | – | –
